This note sets out measurements from patent US5070207A, “Phospholipase A2 inhibitors” (American Home Products Corporation, priority 1990, dated 1991).

pIC50: −log10 of the molar value. Like-named read-outs stand apart in the source and are kept apart here.

By inhibition is commonly meant the percentage by which the read-out fell short of the control. What is called pIC50 is the IC50 on a negative log10 scale, so that one unit is a factor of ten.

One assay addresses T1, Human Synovial PLA2 (Homo sapiens, UniProt P14555).
T1 construct: b) Purified human synovial fluid; from tissue; host or cells: human synovial fluid (purified)
T1 sequence (P14555 21-144): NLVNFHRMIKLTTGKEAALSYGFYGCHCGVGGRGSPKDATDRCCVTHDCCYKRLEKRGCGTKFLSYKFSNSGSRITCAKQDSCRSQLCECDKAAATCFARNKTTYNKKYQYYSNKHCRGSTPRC
The assay can be described thus: in vitro isolated phospholipase A2 assay, human synovial fluid PLA2. Type of assay: biochemical. The conditions noted are these: for inhibition at 10 µM: read-out: % Inhibition at 10 μM HSF. How it is done: (§1) The compounds of the invention are tested in an in vitro isolated phospholipase A2 assay to determine the ability of the test compounds to inhibit the release of arachidonic acid from an arachidonic acid-containing substrate by the action of phospholipase A2 enzyme from human and non-human sources.
(§2) Into a 15 mL polypropylene tube are added the following:
(§3) ^6 Two human PLA2 enzymes are used:
b) Purified human synovial fluid.
(§4) Incubate the 100 μL reaction mixture for 10 minutes at 37° C. in a shaking water bath. The reaction is terminated by the addition of 2 mL tetrahydrofuran, followed by vortexing. NH2 columns (100 μg/mL-Analytichem International) are conditioned with 0.5 mL tetrahydrofuran followed by 0.5 mL tetrahydrofuran/water (2 mL:0.1 mL, v/v).
(§5) The sample is loaded onto the columns and slowly drawn through them. The hydrolyzed arachidonic acid retained in the columns is eluted therefrom with 1 mL tetrahydrofuran/glacial acetic acid (2%). The arachidonic acid is transferred to scintillation vials and quantitated by β-counting analysis. A "total counts" sample is prepared by pipetting 25 μL ^3 H-arachidonate E. coli directly into a scintillation vial to which is added 1 mL tetrahydrofuran. 10 mL aquasol (scintillation cocktail) is added to all samples.

The subject of assay [1] is LTC4 (lipoxygenase pathway). As to the kind of experiment: in vivo murine zymosan peritonitis assay, LTC4. The conditions noted are these: for ED50: Mus musculus, po, standard drugs. Details: species or system mouse (male CD-1). How it is done:
(§6) The compounds of the invention are evaluated for their ability to inhibit the lipoxygenase and/or cyclooxygenase pathways of arachidonic acid metabolism in the in vivo murine zymosan peritonitis assay.
(§7) Male CD-1 mice (8 weeks old) are placed in plastic boxes in groups of six. Animals are injected with 1 mL i.p. of either 1% zymosan in pyrogen free 0.9% saline or saline (unstimulated control). Compounds are dosed orally 1 hour prior to zymosan injection. Twenty minutes after zymosan injection, the mice are asphyxiated by CO2 inhalation and the peritoneal cavity is lavaged with 2 mL ice cold Hanks Balanced Salt Solution (HBSS) without CaCl2, MgSO4 . 7H2 O and MgCl2 . 6H2 O. Peritoneal lavage fluid from each mouse is removed by syringe and placed in 5 mL plastic test tubes put on ice and volume is noted. Preparation of samples for evaluation by ELISA is as follows: Samples are centrifuged at 800 xg for 15 minutes; 1 mL of the supernatant is added to 8 mL ice cold methanol and kept at -70° C. overnight to precipitate protein; and samples are then centrifuged at 800 xg for 15 minutes, followed by a drying procedure in a Savant speed vac concentrator. The samples are reconstituted with 1 mL ice cold ELISA buffer and stored at -70° C. until assayed. The assay for eicosanoids (LTC4 and 6-keto-PGF1α) is performed according to conventional ELISA procedures.
(§8) Compounds to be tested orally are suspended in 0.5% Tween 80. Compounds to be tested intraperitoneally are suspended in 0.5% methylcellulose in 0.9% saline.
(§9) The total metabolite level in lavage fluid/mouse is calculated and the significance is determined by a one-way analysis of variance with LSD comparisons to control (p≤0.05). Drug effects are expressed as a percent change from control values.

Another assay deals with T2, Human Platelet PLA2 (Homo sapiens, UniProt P14555).
T2 construct: a) Semipurified human platelet acid extract PLA2 (in 10 mM sodium; from tissue; host or cells: human platelets (acid extract, semipurified)
T2 sequence (P14555 21-144): T1 sequence (P14555 21-144)
The assay can be described thus: in vitro isolated phospholipase A2 assay, human platelet PLA2. Type of assay: biochemical. The note with it: for inhibition at 10 µM: read-out: % Inhibition at 10 μM HP. How it is done: as §1, §2, §3
a) Semipurified human platelet acid extract PLA2 (in 10 mM sodium
acetate buffer, pH 4.5). Remove protein precipitate by centrifugation at
about 2200 rpm for 10 minutes.
as §4, §5

Assay [2] concerns 6-keto-PGF1α /TxB2 (cyclooxygenase pathway). The assay can be described thus: in vivo murine zymosan peritonitis assay, 6-keto-PGF1α /TxB2. Further details: species or system mouse (male CD-1). The note with it: for ED50: Mus musculus, po, read-out: ED50 6-keto-PGF1α /TxB2. How it is done:
as §6, §7, §8, §9

Assay [3] deals with T×B2 synthesis by rat glycogen-elicited polymorphonuclear leukocytes (PMN). The assay can be described thus: inhibition of synthesis of the cyclooxygenase product TxB2 by rat polymorphonuclear leukocytes. The note with it: Leukocyte. Type of assay: cell-based. How it is done:
The exudate is centrifuged at 400 xg for 10 minutes. The supernatant fluid is discarded and the cell pellet is resuspended to a concentration of 2.0×10^7 cells/mL in HBSS containing Ca^++ and Mg^++ and 10 μM L-cysteine. […] The reaction is terminated by centrifugation and pelleting cells. Supernatants are then analyzed by HPLC analysis on a 15 cm×4.6 mm ID supelcosil LC-18 (Supelco)(3M) column, using a two solvent system at a flow rate of 1.4 mL total flow as follows: […] In this assay, the procedure of Example 14 is carried out as described. […] The results are calculated as in Example 14 and presented below: […]

Assay [4] concerns LTB4 synthesis by rat glycogen-elicited polymorphonuclear leukocytes (PMN). As to the kind of experiment: inhibition of LTB4 synthesis by rat glycogen-elicited polymorphonuclear leukocytes. The note with it: Leukocyte. Type of assay: cell-based. How it is done:
Roy. Soc. Med., 74, 831 (1981)]. […] Accordingly, the specificity of action of PLA2 inhibitors can be determined by the activity of test compounds in this assay, which measures the ability of compounds to inhibit the synthesis of LTB4 by rat glycogen-elicited polymorphonuclear leukocytes (PMN) in the presence of exogenous substrate. […] The exudate is centrifuged at 400 xg for 10 minutes. The supernatant fluid is discarded and the cell pellet is resuspended to a concentration of 2.0×10^7 cells/mL in HBSS containing Ca^++ and Mg^++ and 10 μM L-cysteine. […] The reaction is terminated by centrifugation and pelleting cells. Supernatants are then analyzed by HPLC analysis on a 15 cm×4.6 mm ID supelcosil LC-18 (Supelco)(3M) column, using a two solvent system at a flow rate of 1.4 mL total flow as follows: Solvent A: 70:30 17.4 mM H3 PO4 :CH3 CN Solvent B. CH3 CN Gradient: (system is equilibrated with Solvent A) Percent solvent changes are accomplished in a linear fashion. […] 10^4 -2.0×10^4 dpm of eicosanoids of interest are injected in 90 μL EtOH cocktail. […] Results are expressed as percent inhibition at a given compound dose or as an IC50 value.

Setting [5] is: human synovial fluid, read-out: IC50 HSF.

Regarding `CC(C)(C#CC(=O)C(F)(F)F)CCOc1ccc(Cl)cc1` [Example 9, 7-(4-Chlorophenoxy)-5,5-dimethyl-1,1,1-trifluoro-3-heptyne-2-one], at Human Synovial PLA2 (human synovial fluid), the inhibition at 10 µM is 19.8%.
With `NC1=NN(c2cccc(C(F)(F)F)c2)CC1` [BW755C], the ED50 in assay [1] was less than 10 mg/kg.
With `O=C(C#CCCCOc1ccc(Cl)cc1)C(F)(F)F` [Example 1, 7-(4-Chlorophenoxy)-1,1,1-trifluoro-3-heptyn-2-one], the inhibition at 50 µM on Human Platelet PLA2 (at 50 μM, human platelet, read-out: % Inhibition HP) was determined as 54%. For the same compound, the “% Inhibition LTC4” value in assay [1] (100 mg/kg p.o.) worked out at 32%. In addition, the “% Inhibition 6-keto-PGF” value in assay [2] (100 mg/kg p.o.) turned out to be 15%. In addition, the inhibition at 10 µM in assay [3] came out at 24%; in assay [4], 89.8%. For the same compound, the pIC50 on Human Synovial PLA2 (setting [5]) was 6.31.
Consider `CC(C)(C#CC(=O)C(F)(F)F)Oc1ccc(OC(F)(F)F)cc1` [Example 12, 1,1,1-Trifluoro-5-methyl-5-[4-(trifluoromethoxy)phenoxy]-3-hexyn-2-one], for which the inhibition at 10 µM on Human Synovial PLA2 (human synovial fluid) amounted to 58.8%.
For the compound `O=C(C#CCCCOc1ccc(Cl)cc1)C(F)(F)CCc1ccccc1` [Example 7, 9-(4-Chlorophenoxy)-3,3-difluoro-1-phenyl-5-nonyn-4-one], the inhibition at 10 µM in assay [3] is 40%; in assay [4] it was 72%. For the same compound, at Human Synovial PLA2 (setting [5]), the pIC50 is 6.05.
Regarding `O=C(C#CCCCOc1cccc(C(F)(F)F)c1)C(F)(F)F` [Example 8, 1,1,1-Trifluoro-7-[3-(trifluoromethyl)phenoxy]-3-heptyn-2-one], the inhibition at 10 µM on Human Synovial PLA2 (human synovial fluid) was found to be 90.5%.
As for `CCCCC/C=C\C/C=C\C/C=C\C/C=C\CCCC(=O)O` [Arachidonic Acid, reference compound], the pIC50 against Human Platelet PLA2 is 5.07; on Human Synovial PLA2, 5.49.
As to `COc1ccc(OCCCC#CC(=O)C(F)(F)F)cc1` [Example 5, 1,1,1-Trifluoro-7-(4-methoxyphenoxy)-3-heptyn-2-one], at Human Synovial PLA2 (human synovial fluid), the inhibition at 10 µM turned out to be 38.7%.
In the case of `CC(=CCCC1=CCC(C2=CC(=O)OC2O)OC1O)CCC1=C(C)CCCC1(C)C` (stereo not drawn) [Monoalide, reference compound], the results for the pIC50 against Human Platelet PLA2 and on Human Synovial PLA2 were 4.60 and 6.85, respectively.
Turning to `CC(C)Cc1ccc(C(C)C(=O)O)cc1` (stereo not drawn) [Ibuprofen], in assay [2] (standard drugs), the ED50 came to 7 mg/kg.
Consider `O=C(C#CCCCOc1ccc(Cl)c2ccccc12)C(F)(F)F` [Example 11, 7-[(4-Chloro-1-naphthalenyl)oxy]-1,1,1-trifluoro-3-heptyn-2-one], for which the inhibition at 10 µM on Human Platelet PLA2 (human platelet) turned out to be 26.5%; on Human Synovial PLA2 (human synovial fluid), 94.6%.
On to `O=C1CCN(c2ccccc2)N1` [Phenidone], for which the ED50 in assay [1] was 24 mg/kg; in assay [2] (standard drugs), less than 30 mg/kg.
Regarding `COc1ccc2c(c1)c(CC(=O)O)c(C)n2C(=O)c1ccc(Cl)cc1` [Indomethacin], in assay [2], the ED50 is 0.126 mg/kg.
Take `O=C(C#CCCCN1c2cccc3cccc(c23)S1(=O)=O)C(F)(F)F` [Example 6, 1,1,1-Trifluoro-7-(2H-naphth[1,8-cd]isothiazol-2-yl)-3-heptyn-2-one S,S-dioxide]: on Human Synovial PLA2 (human synovial fluid), the inhibition at 10 µM was determined as 84.8%.
Turning to `O=C(C#CCCCn1c2ccccc2c2ccccc21)C(F)(F)F` [Example 2, 7-(9H-Carbazol-9-yl)-1,1,1-trifluoro-3-heptyn-2-one], on Human Platelet PLA2 (human platelet), the inhibition at 10 µM is 7.2%. The pIC50 at Human Synovial PLA2 (setting [5]) is 7.37.
Take `O=C(C#CCCCOc1ccc(F)cc1)C(F)(F)F` [Example 3, 1,1,1-Trifluoro-7-(4-fluorophenoxy)-3-heptyn-2-one]: the pIC50 at Human Synovial PLA2 (setting [5]) was 5.05.
Still for that read-out and setting: under `CC(C)(C)c1ccc(OCCCC#CC(=O)C(F)(F)F)cc1` [Example 4, 7-[4-(1,1-Dimethylethyl)phenoxy]-1,1,1-trifluoro-3-heptyn-2-one] stands 6.70.
In the case of `O=C(C#CCCCCOc1ccc(Cl)cc1)C(F)(F)F` [Example 10, 8-(4-Chlorophenoxy)-1,1,1-trifluoro-3-octyn-2-one], the inhibition at 10 µM at Human Synovial PLA2 (human synovial fluid) came out at 94.2%.
